Test results published in patent publication US9216147B2, “Mild cosmetic cleansing composition” (Henkel AG & Co. KGaA, priority 2011, dated 2015).

What was measured:
[1] = Irritation test (reaction time method) against commercially available baby and children's shampoos; conditions: 5% in water (reference)
Experimental: Cleansing agents 1 and 2 were compared in a test (reaction time method) with various commercially available baby and children's shampoos. The shampoos were diluted down to 50% with water in each case.
A 5% sodium laureth sulfate solution served as a reference.
A Q value of >1.20 denotes an irritating effect; a Q value of <0.8 denotes slight irritation.

[2] = pH of the diluted test solution; format: physicochemical; conditions: 5% in water

- pH [2]: 7.2
Substance: sodium laureth sulfate [Reference (SLES, 5% in water)]
- Reaction time method [Q] [1]: 1.00
